Data taken from US20150296788A1, “PESTICIDALLY ACTIVE TRICYCLIC PYRIDYL DERIVATIVES” (SYNGENTA PARTICIPATIONS AG, priority 2012, published 2015).

Tests used:
Type in all cases: in vivo
[1] = tested on: Myzus persicae (Green Peach Aphid); test: Activity against Myzus persicae (green peach aphid), leaf disc, feeding/residual contact, preventive; conditions: foliar, 144 h, sunflower leaf discs sprayed, mixed-age aphid population, 6 days incubation
Method: Activity Against Myzus persicae (Green Peach Aphid)
(Mixed Population, Feeding/Residual Contact Activity, Preventive)
(§1) Sunflower leaf discs were placed on agar in a 24-well microtiter plate and sprayed with test solutions. After drying, the leaf discs were infested with an aphid population of mixed ages. After an incubation period of 6 days, samples were checked for mortality.

[2] = tested on: Bemisia tabaci (Cotton White Fly); test: Activity against Bemisia tabaci (cotton white fly), leaf disc, feeding/residual contact, preventive; conditions: foliar, 144 h, cotton leaf discs sprayed, 12 to 18 adults, 6 days after infestation
Method: Activity Against Bemisia tabaci (Cotton White Fly)
(Feeding/Residual Contact Activity, Preventive)
Cotton leaf discs were placed on agar in a 24-well microtiter plate and sprayed with test solutions. After drying, the leaf discs were infested with 12 to 18 adults. After an incubation period of 6 days after infestation, samples were checked for mortality and special effects (e.g. phytotoxicity).

[3] = tested on: Frankliniella occidentalis (Western Flower Thrips); test: Activity against Frankliniella occidentalis (western flower thrips), leaf disc, feeding/residual contact, preventative; conditions: foliar, 168 h, sunflower leaf discs sprayed, mixed-age population, 7 DAT
Method: Activity Against Frankliniella occidentalis (Western Flower Thrips)
(Mixed Population, Feeding/Residual Contact Activity, Preventative)
as §1, with “are” for “were”, “a Frankliniella” for “an aphid”, “7 DAT,” for “6 days,”, “mortality and special effects (e.g. phytotoxicity).” for “mortality.”

SMILES	mortality at 200 ppm [1] [%]	mortality at 200 ppm [2] [%]	mortality at 200 ppm [3] [%]
c1cncc(-n2cc(-c3ccc4c(n3)-c3ncncc3CC4)cn2)c1 [Compound 1.001, 9-[1-(3-pyridyl)pyrazol-4-yl]-5,6-dihydropyrido[3,2-h]quinazoline]	> 80	> 80	
c1cncc(-n2cc(-c3ccc4c(n3)-c3n[nH]cc3CC4)cn2)c1 [Compound 1.002, 8-[1-(3-pyridyl)pyrazol-4-yl]-4,5-dihydro-2H-pyrazolo[4,3h]quinoline]	> 80	> 80	
CN1c2ccc(-c3cnn(-c4cccnc4)c3)nc2-c2ncncc2S1(=O)=O [Compound 1.003, 9-methyl-6-(1-pyridin-3-yl-1H-pyrazol-4-yl)-9H-10-thia-2,4,5,9-tetraaza-phenanthrene 10,10-dioxide]	> 80		> 80
CN1c2ccc(-c3cnn(-c4cccnc4)c3)nc2-c2[nH]ncc2S1(=O)=O [Compound 1.004, 5-methyl-8-(1-pyridin-3-yl-1H-pyrazol-4-yl)-1,5-dihydro-4-thia-1,2,5,9-tetraaza-cyclopenta[a]naphthalene 4,4-dioxide]	> 80	> 80	> 80
